Values quoted from earlier work as cited in US6686317B2, “Supported fluridone compositions and methods” (SePro Corporation, priority 2001, dated 2004).
Like-named read-outs stand apart in the source and are kept apart here.

System: aquatic plants

For “1-methyl-3-phenyl-5-3-(trifluoromethyl)phenyl-4(1H)-pyridinone [fluridone]”, which “concentration to which plant species are usually susceptible” value (other species susceptible only to higher concentrations) is on record?
Its value is 150 ppb.

What about the “concentration to which plant species are usually susceptible” value (some (more susceptible) species, as low as) of the same substance?
The value was “about 5 ppb”.
